One compound from patent publication US11752150B2, “Anti-tumor immunotherapy enhancer” (Nobuo Tsukamoto, priority 2017, dated 2023) can be followed below.

Molecules are shown by their SMILES.

For this assay, the system named is mouse cancer cells MCA205 IDO1WT. Briefly: Tumor volume in C57BL/6 mice implanted with MCA205 IDO1WT cells (1-MT and Y15). In kind it is in vivo. Conditions: MCA205 IDO1WT in C57BL/6; Y15 600 μg/animal i.p. once a day from Day 5; 1-MT 4 mg/mL in drinking water from Day 5; n=5; FIG. 23. As for the experimental part:
On Day 0, 5×10^5 mouse cancer cells MCA205 IDO1WT expressing the wild-type mouse IDO1 gene were implanted into the ventral side of C57BL/6 mice.
The FAK inhibitor Y15 (MedChem Express) was dissolved in PBS and administered intraperitoneally once a day from Day 5 at 600 μg/100 μl/animal. In the control group, PBS was intraperitoneally administered at 100 μl/animal once a day from Day 5.
The major axis and minor axis of the tumor were measured every two days. The tumor volume was calculated as 0.5×(major axis)×(minor axis)^2.

On to `Cl.Cl.Cl.Cl.Nc1cc(N)c(N)cc1N` [Y15, 1,2,4,5-benzenetetraamine tetrahydrochloride], for which the tumor volume entry is “a smaller tumor was formed as compared with the group to which neither drug was administered”.
